The results in this text go back to ChEMBL document CHEMBL1144945, “Development of progesterone receptor antagonists from 1,2-dihydrochromeno[3,4-f]quinoline agonist pharmacophore” (Bioorg Med Chem Lett, 2003).

Experiment [1] addresses T1, Glucocorticoid receptor (Homo sapiens) (UniProt P04150).
T1 sequence (whole entry): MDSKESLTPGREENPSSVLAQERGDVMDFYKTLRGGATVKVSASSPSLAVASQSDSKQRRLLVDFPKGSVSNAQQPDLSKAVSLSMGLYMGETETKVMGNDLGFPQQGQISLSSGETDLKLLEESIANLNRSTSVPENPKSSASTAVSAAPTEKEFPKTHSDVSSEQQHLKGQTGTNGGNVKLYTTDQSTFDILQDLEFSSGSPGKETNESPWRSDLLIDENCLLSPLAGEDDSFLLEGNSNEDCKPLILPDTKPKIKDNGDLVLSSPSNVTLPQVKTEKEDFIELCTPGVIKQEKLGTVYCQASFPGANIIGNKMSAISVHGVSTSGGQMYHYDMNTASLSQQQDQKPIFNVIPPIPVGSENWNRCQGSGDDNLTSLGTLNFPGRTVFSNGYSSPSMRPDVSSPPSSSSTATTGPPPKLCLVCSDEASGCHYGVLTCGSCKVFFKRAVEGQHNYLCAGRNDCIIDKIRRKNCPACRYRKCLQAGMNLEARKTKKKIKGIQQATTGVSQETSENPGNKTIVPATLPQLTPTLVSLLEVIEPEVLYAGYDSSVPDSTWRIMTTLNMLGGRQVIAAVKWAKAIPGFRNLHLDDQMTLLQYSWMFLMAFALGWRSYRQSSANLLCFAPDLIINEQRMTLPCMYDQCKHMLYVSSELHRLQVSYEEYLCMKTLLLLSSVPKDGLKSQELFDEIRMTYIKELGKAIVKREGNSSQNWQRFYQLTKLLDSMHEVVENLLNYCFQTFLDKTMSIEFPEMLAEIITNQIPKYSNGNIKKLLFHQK
Kind of experiment: Antagonist efficacy for glucocorticoid receptor; not active. Format: functional.

Another experiment concerns the target T2, Androgen receptor (Homo sapiens, UniProt P10275).
T2 sequence (P10275 whole entry): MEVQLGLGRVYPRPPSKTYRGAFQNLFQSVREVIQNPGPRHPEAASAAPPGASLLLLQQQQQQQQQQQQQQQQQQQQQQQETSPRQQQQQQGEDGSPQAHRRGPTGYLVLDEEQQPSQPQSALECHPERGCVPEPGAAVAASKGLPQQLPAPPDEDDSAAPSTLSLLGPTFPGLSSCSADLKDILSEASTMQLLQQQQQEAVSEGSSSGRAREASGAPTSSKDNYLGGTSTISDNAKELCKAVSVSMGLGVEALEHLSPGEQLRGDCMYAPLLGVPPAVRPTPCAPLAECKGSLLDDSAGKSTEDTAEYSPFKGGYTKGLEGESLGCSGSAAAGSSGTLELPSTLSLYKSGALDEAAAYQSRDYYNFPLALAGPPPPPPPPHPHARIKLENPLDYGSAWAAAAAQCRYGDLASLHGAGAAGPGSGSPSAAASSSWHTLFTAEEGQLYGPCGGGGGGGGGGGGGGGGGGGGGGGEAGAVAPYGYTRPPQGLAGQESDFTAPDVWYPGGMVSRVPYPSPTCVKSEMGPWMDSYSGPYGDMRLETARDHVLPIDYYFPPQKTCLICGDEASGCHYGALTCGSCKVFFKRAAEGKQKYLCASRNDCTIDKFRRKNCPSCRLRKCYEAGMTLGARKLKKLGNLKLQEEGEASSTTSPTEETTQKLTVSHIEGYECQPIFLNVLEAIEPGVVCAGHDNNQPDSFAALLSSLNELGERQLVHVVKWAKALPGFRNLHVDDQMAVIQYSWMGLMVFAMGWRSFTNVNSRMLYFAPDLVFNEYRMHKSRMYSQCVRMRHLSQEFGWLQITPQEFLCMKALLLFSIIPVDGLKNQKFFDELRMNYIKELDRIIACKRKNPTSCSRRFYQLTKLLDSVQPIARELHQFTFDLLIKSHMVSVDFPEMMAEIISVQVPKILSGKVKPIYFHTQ
Description: Inhibition of antagonist activity towards human androgen receptor. The experiment is classed as functional.

Another experiment deals with T3, Progesterone receptor (Homo sapiens, UniProt P06401).
T3 sequence (P06401 whole entry): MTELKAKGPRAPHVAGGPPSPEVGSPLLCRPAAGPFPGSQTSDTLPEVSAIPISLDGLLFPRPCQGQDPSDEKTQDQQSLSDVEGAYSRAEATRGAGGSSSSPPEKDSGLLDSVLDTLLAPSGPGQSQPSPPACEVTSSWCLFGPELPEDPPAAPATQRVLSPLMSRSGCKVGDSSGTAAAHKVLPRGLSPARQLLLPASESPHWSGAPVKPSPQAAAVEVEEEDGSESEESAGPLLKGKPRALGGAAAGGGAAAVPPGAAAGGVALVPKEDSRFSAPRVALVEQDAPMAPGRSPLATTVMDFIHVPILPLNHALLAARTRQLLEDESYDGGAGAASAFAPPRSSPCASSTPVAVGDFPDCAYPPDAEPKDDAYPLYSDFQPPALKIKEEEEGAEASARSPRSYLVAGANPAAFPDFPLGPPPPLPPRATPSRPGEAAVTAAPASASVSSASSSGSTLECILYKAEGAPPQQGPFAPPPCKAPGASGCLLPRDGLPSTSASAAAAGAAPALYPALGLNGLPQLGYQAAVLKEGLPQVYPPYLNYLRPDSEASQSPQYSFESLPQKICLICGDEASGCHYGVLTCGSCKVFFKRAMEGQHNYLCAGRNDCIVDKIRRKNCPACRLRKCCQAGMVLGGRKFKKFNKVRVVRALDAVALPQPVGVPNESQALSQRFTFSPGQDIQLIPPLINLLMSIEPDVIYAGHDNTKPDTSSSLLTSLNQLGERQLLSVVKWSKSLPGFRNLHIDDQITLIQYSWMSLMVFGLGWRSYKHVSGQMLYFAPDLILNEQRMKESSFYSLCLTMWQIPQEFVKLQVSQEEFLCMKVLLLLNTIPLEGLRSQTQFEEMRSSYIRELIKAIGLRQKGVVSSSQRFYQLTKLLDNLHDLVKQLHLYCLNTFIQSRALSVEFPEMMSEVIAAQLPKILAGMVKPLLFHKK
Description: Effective concentration for human progesterone in T47D human breast cancer cell. The experiment is classed as cell-based, Cancer cell lines.

Experiment [2] concerns the target T4, Progesterone receptor (Homo sapiens) (UniProt P06401).
T4 sequence (whole entry): T3 sequence (P06401 whole entry)
Kind of experiment: Antagonist efficacy for human progesterone in T47D human breast cancer cell. The experiment is classed as functional, cell-based.

pEC50, pIC50: −log10 of the molar value. The source made the active and inactive calls. No cut-off for these calls is given here.

As usually defined, the pIC50 is −log10 of the IC50, conventionally taken in molar units. As for `CC1CC(C)(C)Nc2ccc3c(c21)COc1c(F)cc(F)cc1-3` (centres undefined), the Efficacy result in experiment [1] is “inactive”. For the same compound, on Androgen receptor, the negative-log IC50 (pIC50) was 6.83.

A word on the pEC50: it is the EC50 on a negative log10 scale, so that one unit is a factor of ten. For `CC1=CC(C)(C)Nc2ccc3c(c21)COc1c(F)cc(F)cc1-3`, the pEC50 on Progesterone receptor is 6.61. For the same compound, the Efficacy in experiment [2] is 52%.
